pIC50: −log10 of the molar value.
Target: ASK1 (Homo sapiens (Human), UniProt Q99683)
Assay: HTRF KinEASE Assay (TR-FRET, STK3 peptide substrate), inhibition of ASK1
Assay type: biochemical
Settings: 5 nM ASK1 kinase, 1 μM STK3 peptide substrate, 100 μM ATP, 3 hours; compound 0 to 10 μM
Method: Assay HTRF® KinEASE™ Assay
ASK1 was purchased from Thermofisher (Catalogue # PV4011), ATP was purchased from Sigma (Catalogue # A7699), HI-TRF® KinEASE™ Assay System was obtained from Cisbio (Bedford, Mass.). […] HTRF® KinEASE™-STK is a generic method for measuring serine/threonine kinase activities using a time-resolved fluorescence resonance energy transfer (TR-FRET) immunoassay. […] 100 Um ATP is added to start kinase reaction and incubated for 3 hours. The STK3-antibody labeled with Eu^3+-Cryptate and 125 Nm streptavidin-XL665 are mixed in a single addition with stop reagents provided by the Cisbio kit used to stop the kinase reaction. […] The resulting TR-FRET is proportional to the phosphorylation level. Staurosporine was used as the positive control. IC50 was determined by Xlfit 5.3.
By using above method, the inhibition of ASK1 was evaluated for the compounds of Formula (I).

Chain of ASK1 (Q99683 whole entry): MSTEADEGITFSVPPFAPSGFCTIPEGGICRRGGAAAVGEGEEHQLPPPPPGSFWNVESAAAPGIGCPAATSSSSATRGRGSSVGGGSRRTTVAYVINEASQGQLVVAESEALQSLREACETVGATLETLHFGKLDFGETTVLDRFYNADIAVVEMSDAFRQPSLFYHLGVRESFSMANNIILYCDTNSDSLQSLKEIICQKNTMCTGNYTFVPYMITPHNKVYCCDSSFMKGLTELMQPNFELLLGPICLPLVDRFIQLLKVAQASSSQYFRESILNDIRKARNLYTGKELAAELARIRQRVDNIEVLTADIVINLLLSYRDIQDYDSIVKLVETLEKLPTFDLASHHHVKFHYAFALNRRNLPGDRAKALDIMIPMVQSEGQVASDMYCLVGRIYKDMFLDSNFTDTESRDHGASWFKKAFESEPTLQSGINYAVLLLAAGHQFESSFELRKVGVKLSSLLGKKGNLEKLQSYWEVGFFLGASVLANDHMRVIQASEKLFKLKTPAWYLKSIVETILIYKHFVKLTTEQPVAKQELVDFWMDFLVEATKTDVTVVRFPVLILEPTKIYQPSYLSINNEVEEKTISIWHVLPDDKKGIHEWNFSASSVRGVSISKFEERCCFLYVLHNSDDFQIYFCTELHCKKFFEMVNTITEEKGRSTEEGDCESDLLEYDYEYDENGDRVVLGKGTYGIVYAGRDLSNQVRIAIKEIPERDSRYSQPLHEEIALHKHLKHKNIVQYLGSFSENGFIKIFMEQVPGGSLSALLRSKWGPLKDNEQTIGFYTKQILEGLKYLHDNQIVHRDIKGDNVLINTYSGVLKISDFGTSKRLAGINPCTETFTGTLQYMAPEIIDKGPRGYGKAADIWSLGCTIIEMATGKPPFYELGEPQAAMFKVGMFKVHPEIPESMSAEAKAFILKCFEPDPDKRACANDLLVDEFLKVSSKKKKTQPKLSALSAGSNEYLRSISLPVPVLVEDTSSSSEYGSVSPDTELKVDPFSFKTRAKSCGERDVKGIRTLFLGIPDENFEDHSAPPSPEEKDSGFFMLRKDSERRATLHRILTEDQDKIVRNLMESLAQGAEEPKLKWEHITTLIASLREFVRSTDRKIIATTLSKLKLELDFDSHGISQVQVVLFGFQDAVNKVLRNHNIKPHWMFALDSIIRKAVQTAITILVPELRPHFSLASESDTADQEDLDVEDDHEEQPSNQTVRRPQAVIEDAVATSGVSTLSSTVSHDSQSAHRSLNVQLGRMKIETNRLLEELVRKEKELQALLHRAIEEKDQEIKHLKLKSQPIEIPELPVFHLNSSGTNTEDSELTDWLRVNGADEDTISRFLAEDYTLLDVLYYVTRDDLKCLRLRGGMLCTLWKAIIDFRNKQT

pIC50 | SMILES
8.00 to 9.00 | CC(C)n1nnnc1-c1cccc(NC(=O)c2cc3c(cn2)CCN(S(=O)(=O)C2CC2)C3)n1 [Example 110, 6-(cyclopropylsulfonyl)-N-(6-(1-isopropyl-1H-tetrazol-5-yl)pyridin-2-yl)-5,6,7,8-tetrahydro-2,6-naphthyridine-3-carboxamide]
7.00 to 8.00 | CC(C)n1nnnc1-c1cccc(NC(=O)c2cc3c(cn2)CCN(S(=O)(=O)N(C)C)C3)n1 [Example 111]
7.00 to 8.00 | CC(C)n1nnnc1-c1cccc(NC(=O)c2cc3c(cn2)CCN(C(=O)N(C)C2CCCC2)C3)n1 [Example 112]
8.00 to 9.00 | CCN(CC)C(=O)N1CCc2cnc(C(=O)Nc3cccc(-c4nnnn4C(C)C)n3)cc2C1 [Example 113]
7.00 to 8.00 | CC(C)n1nnnc1-c1cccc(NC(=O)c2cc3c(cn2)CCN(C(=O)N(C)CCC(F)(F)F)C3)n1 [Example 114]
8.00 to 9.00 | CCN(C)C(=O)N1CCc2cnc(C(=O)Nc3cccc(-c4nnnn4C(C)C)n3)cc2C1 [Example 115]
8.00 to 9.00 | CC(C)n1nnnc1-c1cccc(NC(=O)c2cc3c(cn2)CCN(C(=O)N(C)C)C3)n1 [Example 116]
8.00 to 9.00 | CCNC(=O)N1CCc2cnc(C(=O)Nc3cccc(-c4nnnn4C(C)C)n3)cc2C1 [Example 117]
8.00 to 9.00 | CCOC(=O)N1CCc2cnc(C(=O)Nc3cccc(-c4nnnn4C(C)C)n3)cc2C1 [Example 118]
8.00 to 9.00 | CC(C)n1nnnc1-c1cccc(NC(=O)c2cc3c(cn2)CCN(C(=O)C2CCCC2)C3)n1 [Example 119]
8.00 to 9.00 | C[C@H](CO)n1nnnc1-c1cccc(NC(=O)c2cc3c(cn2)CCN(S(=O)(=O)c2ccccc2)C3)n1 [Example 120]
8.00 to 9.00 | C[C@H](CO)n1nnnc1-c1cccc(NC(=O)c2cc3c(cn2)CCN(C(=O)c2ccc(F)cc2)C3)n1 [Example 121]
8.00 to 9.00 | COCCC(=O)N1CCc2cnc(C(=O)Nc3cccc(-c4nnnn4[C@H](C)CO)n3)cc2C1 [Example 122]
8.00 to 9.00 | C[C@H](CO)n1nnnc1-c1cccc(NC(=O)c2cc3c(cn2)CCN(C(=O)CCC(F)(F)F)C3)n1 [Example 123]
8.00 to 9.00 | C[C@H](CO)n1nnnc1-c1cccc(NC(=O)c2cc3c(cn2)CCN(C(=O)C2CCC2)C3)n1 [Example 124]
8.00 to 9.00 | CCC(=O)N1CCc2cnc(C(=O)Nc3cccc(-c4nnnn4[C@H](C)CO)n3)cc2C1 [Example 125]
> 9.00 | C[C@H](CO)n1nnnc1-c1cccc(NC(=O)c2cc3c(cn2)CCN(C(=O)OCC(F)(F)F)C3)n1 [Example 126]
8.00 to 9.00 | CC(C)COC(=O)N1CCc2cnc(C(=O)Nc3cccc(-c4nnnn4[C@H](C)CO)n3)cc2C1 [Example 127]
8.00 to 9.00 | COC(=O)N1CCc2cnc(C(=O)Nc3cccc(-c4nnnn4[C@H](C)CO)n3)cc2C1 [Example 128]
8.00 to 9.00 | C[C@H](CO)n1nnnc1-c1cccc(NC(=O)c2cc3c(cn2)CCN(C(=O)NCc2ccccc2)C3)n1 [Example 129]
8.00 to 9.00 | COCCNC(=O)N1CCc2cnc(C(=O)Nc3cccc(-c4nnnn4[C@H](C)CO)n3)cc2C1 [Example 130]
8.00 to 9.00 | C[C@H](CO)n1nnnc1-c1cccc(NC(=O)c2cc3c(cn2)CCN(C(=O)NC2CC2)C3)n1 [Example 131]
8.00 to 9.00 | CC(C)NC(=O)N1CCc2cnc(C(=O)Nc3cccc(-c4nnnn4[C@H](C)CO)n3)cc2C1 [Example 132]
8.00 to 9.00 | C[C@H](CO)n1nnnc1-c1cccc(NC(=O)c2cc3c(cn2)CCN(Cc2ccccc2)C3)n1 [Example 133]
8.00 to 9.00 | COCCN1CCc2cnc(C(=O)Nc3cccc(-c4nnnn4[C@H](C)CO)n3)cc2C1 [Example 134]
7.00 to 8.00 | CC(C)N1CCc2cnc(C(=O)Nc3cccc(-c4nnnn4[C@H](C)CO)n3)cc2C1 [Example 135]
7.00 to 8.00 | CCN1CCc2cnc(C(=O)Nc3cccc(-c4nnnn4[C@H](C)CO)n3)cc2C1 [Example 136]
8.00 to 9.00 | CC(C)n1nnnc1-c1cccc(NC(=O)c2cc3c(cn2)CCN(C(=O)N2CCS(=O)(=O)CC2)C3)n1 [Example 137]

Reference: patent US10450301B2, “Apoptosis signal-regulating kinase 1 inhibitors and methods of use thereof” (ENANTA PHARMACEUTICALS, INC., priority 2017, dated 2019)
